Assay results: ChEMBL document CHEMBL3045636, “Synthesis, characterization, in vitro anticancer activity, and docking of Schiff bases of 4-amino-1,2-naphthoquinone” (Med Chem Res, 2013)
The source made the active and inactive calls. No cut-off for these calls is given here.

Assays:
Assay type in all cases: functional, cell-based
[1] = system: MG-63; experiment: Cytotoxicity against Homo sapiens (human) MG63 cells assessed as reduction of cell survival after 48 hr by MTT assay; details: MG-63, 48 h
[2] = system: HepG2; experiment: Cytotoxicity against Homo sapiens (human) HepG2 cells assessed as reduction of cell survival after 48 hr by MTT assay; details: HepG2, 48 h
[3] = system: MCF7; experiment: Cytotoxicity against Homo sapiens (human) MCF7 cells assessed as reduction of cell survival after 48 hr by MTT assay; details: MCF7, 48 h
[4] = system: HepG2; experiment: Cytotoxicity against Homo sapiens (human) HepG2 cells assessed as morphological changes at 10 uM after 48 hr by phase contrast microscopic analysis relative to untreated control
[5] = system: MG-63; experiment: Cytotoxicity against Homo sapiens (human) MG63 cells assessed as morphological changes at 10 uM after 48 hr by phase contrast microscopic analysis relative to untreated control
[6] = system: MCF7; experiment: Cytotoxicity against Homo sapiens (human) MCF7 cells assessed as morphological changes at 10 uM after 48 hr by phase contrast microscopic analysis relative to untreated control

Compound | IC50 [1] [µM] | IC50 [2] [µM] | IC50 [3] [µM] | Activity [4] | Activity [5] | Activity [6]
COc1cc(/C=N\C2=CC(=O)C(=O)c3ccccc32)ccc1O | 9.98 | 6.37 | 8.24 | – | – | –
NC1=CC(=O)C(=O)c2ccccc21 [4-AMINO-[1,2]NAPHTHOQUINONE] | 24.6 | 15.7 | 14.8 | – | – | –
COc1cccc2c1C(=O)c1c(O)c3c(c(O)c1C2=O)C[C@@](O)(C(=O)CO)C[C@@H]3O[C@H]1C[C@H](N)[C@H](O)[C@H](C)O1 [DOXORUBICIN] | 3.17 | 1.69 | 2.67 | – | – | –
CN(C)c1ccc(/C=N\C2=CC(=O)C(=O)c3ccccc32)cc1 | 12.9 | 7.72 | 10.6 | – | – | –
O=C1C=C(N=C2CCCC2)c2ccccc2C1=O | 11.9 | 7.77 | 9.64 | – | – | –
O=C1C=C(/N=C\c2ccccc2O)c2ccccc2C1=O | 16.1 | 11 | 13.2 | – | – | –
O=C1C=C(/N=C\c2ccccc2[N+](=O)[O-])c2ccccc2C1=O | 17 | 11.8 | 14.4 | – | – | –
O=C1C=C(/N=C\c2ccc([N+](=O)[O-])cc2)c2ccccc2C1=O | 25 | 15.6 | 14.7 | – | – | –
COc1cc(/C=N\C2=CC(=O)C(=O)c3ccccc32)cc(OC)c1OC | 9.69 | 5.91 | 7.65 | Active | Active | Active
O=C1C=C(N=C2CCCCC2)c2ccccc2C1=O | 11.5 | 7.37 | 9.3 | – | – | –
O=C1C=C(/N=C\c2ccc(O)cc2)c2ccccc2C1=O | 13.6 | 8.92 | 11.1 | – | – | –
O=C1C=C(/N=C\c2ccccc2Cl)c2ccccc2C1=O | 17.1 | 12.1 | 14.3 | – | – | –
O=C1C=C(/N=C\c2ccc(Cl)cc2Cl)c2ccccc2C1=O | 24.3 | 15.7 | 14.7 | – | – | –
O=C1C=C(/N=C\C=C\c2ccccc2)c2ccccc2C1=O | 14.8 | 10.6 | 12.9 | – | – | –
O=C1C=C(/N=C\c2ccccc2)c2ccccc2C1=O | 16.2 | 11.5 | 13.8 | – | – | –
Cc1ccc(/C=N\C2=CC(=O)C(=O)c3ccccc32)cc1 | 15.1 | 10.4 | 12.6 | – | – | –
O=C1C=C(/N=C\c2c[nH]c3ccccc23)c2ccccc2C1=O | 13.8 | 10.1 | 11.3 | – | – | –
COc1ccc(/C=N\C2=CC(=O)C(=O)c3ccccc32)cc1 | 12.7 | 9.03 | 11.2 | – | – | –
O=C1C=C(/N=C\c2cccc(Br)c2)c2ccccc2C1=O | 17.3 | 12.2 | 14.6 | – | – | –
O=C1C=CC(=O)c2ccccc21 [NAPHTHOQUINONE] | > 25 | 15.9 | 16.9 | – | – | –
COc1ccc(/C=N\C2=CC(=O)C(=O)c3ccccc32)cc1OC | 13.3 | 9.15 | 10.9 | – | – | –
